Measured values: US4792545A, “Boholmycin antibiotic” (Bristol-Myers Company, priority 1986, dated 1988)
≈ marks a conversion by molar mass, not a printed value.

Key:
E. coli D64 = experiment: stimulating growth of streptomycin-dependent E. coli D64 (paper disc); format: cell-based; details: 37° C., 45 hours
From the text: The results are shown in Table 4 wherein the term "boholmycin" is used for short in referring to boholmycin dihydrochloride tetrahydrate.

B. subtilis PCI-219 = experiment: inhibiting growth of B. subtilis PCI-219 (paper disc); format: cell-based; details: 28° C., 18 hours
Experimental: Boholmycin dihydrochloride tetrahydrate was tested in comparison with streptomycin, glebomycin, myomycin B and kanamycin in respect to stimulating growth of E. coli D64 and in respect to inhibiting growth of B. subtilis PCI-219. The results are shown in Table 4 wherein the term "boholmycin" is used for short in referring to boholmycin dihydrochloride tetrahydrate.
*^1 8 mm paper disc containing 35 μl of test solution
*^3 Incubation at 28° C. for 18 hours

K. pneumoniae D-11 [1] = experiment: MIC by serial agar dilution; format: cell-based; details: medium A: Nutrient agar
K. pneumoniae A9678 = experiment: MIC by serial agar dilution; format: cell-based; details: medium A: Nutrient agar
M. flavus D-12 = experiment: MIC by serial agar dilution; format: cell-based; details: medium A: Nutrient agar
E. coli A20664 = experiment: MIC by serial agar dilution; format: cell-based; details: E. coli A20664, kanamycin resistant strain; medium A: Nutrient agar
M. luteus PCI-1001 = experiment: MIC by serial agar dilution; format: cell-based; details: M. luteus PCI-1001; medium A: Nutrient agar
Mycobacterium phlei = experiment: MIC by serial agar dilution; format: cell-based; details: Mycobacterium phlei; medium B: No. 1001 medium
S. marcescens A22302 = experiment: MIC by serial agar dilution; format: cell-based; details: S. marcescens A22302, kanamycin resistant strain; medium A: Nutrient agar
[2] = tested on: experimental infections produced by S. aureus, E. coli and K. pneumoniae; experiment: in vivo activity in mice, Table 5 overall; details: i.m.
E. coli NIHJ = experiment: MIC by serial agar dilution; format: cell-based; details: medium A: Nutrient agar
P. vulgaris A9436 = experiment: MIC by serial agar dilution; format: cell-based; details: medium A: Nutrient agar
S. aureus Smith [3] = experiment: MIC by serial agar dilution; format: cell-based; details: S. aureus Smith; medium A: Nutrient agar
P. mirabilis A9554 = experiment: MIC by serial agar dilution; format: cell-based; details: medium A: Nutrient agar
E. coli Juhl [4] = experiment: in vivo efficacy in mice against experimental infection; details: mice, i.m. just before challenge, E. coli Juhl, 5 days observation
Mycobacterium 607 D46 = experiment: MIC by serial agar dilution; format: cell-based; details: Mycobacterium 607 D46, kanamycin resistant strain; medium B: No. 1001 medium
S. marcescens A20019 = experiment: MIC by serial agar dilution; format: cell-based; details: S. marcescens A20019; medium A: Nutrient agar
E. cloacae A21006 = experiment: MIC by serial agar dilution; format: cell-based; details: E. cloacae A21006, kanamycin resistant strain; medium A: Nutrient agar
E. cloacae A20364 = experiment: MIC by serial agar dilution; format: cell-based; details: E. cloacae A20364, kanamycin resistant strain; medium A: Nutrient agar
B. anthracis IID-115 = experiment: microbe, parasite or virus in culture; format: cell-based; details: B. anthracis IID-115; medium A: Nutrient agar
S. aureus 209P = experiment: MIC by serial agar dilution; format: cell-based; details: S. aureus 209P; medium A: Nutrient agar
B. subtilis ATCC6633 = experiment: MIC by serial agar dilution; format: cell-based; details: medium A: Nutrient agar
E. coli Juhl [5] = experiment: MIC by serial agar dilution; format: cell-based; details: medium A: Nutrient agar
P. aeruginosa A9843A = experiment: microbe, parasite or virus in culture; format: cell-based; details: P. aeruginosa A9843A; medium A: Nutrient agar
E. coli JR35/c600 = experiment: MIC by serial agar dilution; format: cell-based; details: E. coli JR35/c600, kanamycin resistant strain; medium A: Nutrient agar
S. aureus Smith [6] = experiment: in vivo efficacy in mice against experimental infection; details: mice, i.m. just before challenge, S. aureus Smith, 5 days observation
K. pneumoniae D-11 [7] = experiment: as above; details: mice, i.m. just before challenge, K. pneumoniae D-11, 5 days observation
Mycobacterium ranae = experiment: MIC by serial agar dilution; format: cell-based; details: Mycobacterium ranae; medium B: No. 1001 medium
S. aureus A20239 = experiment: MIC by serial agar dilution; format: cell-based; details: S. aureus A20239, kanamycin resistant strain; medium A: Nutrient agar
P. aeruginosa A20601 = experiment: MIC by serial agar dilution; format: cell-based; details: P. aeruginosa A20601, kanamycin resistant strain; medium A: Nutrient agar
P. aeruginosa A9930 = experiment: MIC by serial agar dilution; format: cell-based; details: medium A: Nutrient agar
Mycobacterium 607 D87 = experiment: MIC by serial agar dilution; format: cell-based; details: Mycobacterium 607 D87; medium B: No. 1001 medium
E. coli K-12 = experiment: MIC by serial agar dilution; format: cell-based; details: medium A: Nutrient agar

CN[C@@H]1[C@H](O[C@H]2[C@H](O[C@H]3[C@H](O)[C@@H](O)[C@H](OC(N)=O)[C@@H](O)[C@@H]3N=C(N)N)O[C@@H](C)[C@]2(O)CO)O[C@@H](CO)[C@H](O)[C@H]1O [glebomycin] was tested, and the “Growth zone vs E. coli D64” value (E. coli D64; 1 mg/ml) was 15 mm, the “Growth zone vs E. coli D64” value (E. coli D64; 4 mg/ml) was 27 mm and the “Inhibition zone vs B. subtilis PCI-219” value (B. subtilis PCI-219; 1 mg/ml) was 30 mm. The “Inhibition zone vs B. subtilis PCI-219” value (B. subtilis PCI-219; 4 mg/ml) was 33 mm.
For CCC(=O)N[C@@H]1C(CO)O[C@H](O[C@@H]([C@H](N)[C@H](O)CO)[C@@H](O)CN)C(O)C1O (some centres unmarked) [sorbistin A1], the MIC (K. pneumoniae D-11 [1]) was 6.3 µg/mL (≈ 15.9 µM), the MIC (K. pneumoniae A9678) was 100 µg/mL (≈ 252 µM) and the MIC (M. flavus D-12) was 12.5 µg/mL (≈ 31.5 µM). For the same compound, the MIC (E. coli A20664) was 25 µg/mL (≈ 62.9 µM), the MIC (M. luteus PCI-1001) was 50 µg/mL (≈ 126 µM) and the MIC (Mycobacterium phlei) was 25 µg/mL (≈ 62.9 µM). The MIC (S. marcescens A22302) was 400 µg/mL (≈ 1010 µM), the “in vivo activity compared with streptomycin and kanamycin” value [2] was “much less active than streptomycin and kanamycin” and the MIC (E. coli NIHJ) was 25 µg/mL (≈ 62.9 µM). It also gave an MIC (P. vulgaris A9436) of 50 µg/mL (≈ 126 µM), an MIC (S. aureus Smith [3]) of 50 µg/mL (≈ 126 µM) and an MIC (P. mirabilis A9554) of 50 µg/mL (≈ 126 µM). The PD50 (E. coli Juhl [4]) was 100 mg/kg, the MIC (Mycobacterium 607 D46) was 100 µg/mL (≈ 252 µM) and the MIC (S. marcescens A20019) was greater than 200 µg/mL. The MIC (E. cloacae A21006) was 50 µg/mL (≈ 126 µM), the MIC (E. cloacae A20364) was 50 µg/mL (≈ 126 µM) and the MIC (B. anthracis IID-115) was 50 µg/mL (≈ 126 µM). The MIC (S. aureus 209P) was 50 µg/mL (≈ 126 µM), the MIC (B. subtilis ATCC6633) was 50 µg/mL (≈ 126 µM) and the MIC (E. coli Juhl [5]) was 50 µg/mL (≈ 126 µM). The MIC (P. aeruginosa A9843A) was 6.3 µg/mL (≈ 15.9 µM), the MIC (E. coli JR35/c600) was 25 µg/mL (≈ 62.9 µM) and the PD50 (S. aureus Smith [6]) was 50 mg/kg. The PD50 (K. pneumoniae D-11 [7]) was 75 mg/kg, the MIC (Mycobacterium ranae) was 50 µg/mL (≈ 126 µM) and the MIC (S. aureus A20239) was 100 µg/mL (≈ 252 µM). It also gave an MIC (P. aeruginosa A20601) of 3.1 µg/mL (≈ 7.8 µM), an MIC (P. aeruginosa A9930) of 12.5 µg/mL (≈ 31.5 µM) and an MIC (Mycobacterium 607 D87) of 50 µg/mL (≈ 126 µM). For the same compound, the MIC (E. coli K-12) was 25 µg/mL (≈ 62.9 µM).
